Laboratory results reported in PubChem BioAssay (NCI).
Where “and” joins values, the source holds several entries; their conditions need not be identical. Equal entries are not always repeated.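 Grown in 96-well plates, cells were treated for 48 hours with each compound at five concentrations. Insufficient inhibition: endpoint recorded as highest concentration tested. GI50 is the concentration that inhibits growth by half. The concentration for full growth arrest is given as TGI.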

How the values were obtained:
Assay in all cases: NCI tumour cell line growth inhibition, 48 h
UACC-257 melanoma = test system: UACC-257 melanoma
HCC-2998 colon = test system: HCC-2998 colon
UACC-62 melanoma = test system: UACC-62 melanoma
SF-268 CNS = test system: SF-268 CNS
SR leukemia = test system: SR leukemia
HT29 colon = test system: HT29 colon
HL-60(TB) leukemia = test system: HL-60(TB) leukemia
MOLT-4 leukemia = test system: MOLT-4 leukemia
HCT-15 colon = test system: HCT-15 colon
OVCAR-4 ovarian = test system: OVCAR-4 ovarian

| Structure (SMILES) | TGI (UACC-257 melanoma) | TGI (HCC-2998 colon) | TGI (UACC-62 melanoma) | TGI (SF-268 CNS) | TGI (SR leukemia) | TGI (HT29 colon) | TGI (HL-60(TB) leukemia) | TGI (MOLT-4 leukemia) | TGI (HCT-15 colon) | TGI (OVCAR-4 ovarian) | GI50 (UACC-257 melanoma) | GI50 (HCC-2998 colon) | GI50 (UACC-62 melanoma) | GI50 (SF-268 CNS) | GI50 (SR leukemia) [µM] | GI50 (HT29 colon) | GI50 (HL-60(TB) leukemia) | GI50 (MOLT-4 leukemia) | GI50 (HCT-15 colon) | GI50 (OVCAR-4 ovarian) |
| --- | --- | --- | --- | --- | --- | --- | --- | --- | --- | --- | --- | --- | --- | --- | --- | --- | --- | --- | --- | --- |
| COC(=O)/C=C/c1cc2c(cc1-c1c(C(=O)O)cc(OC)c(OC)c1OC)OCO2 | > 10 µM | > 10 µM | > 10 µM | > 10 µM | > 10 µM | > 10 µM | > 10 µM | > 10 µM | > 10 µM | > 10 µM | – | – | – | – | – | – | – | – | – | – |
| C[N+]1=C(/C=C\C=C\c2ccccc2)C(C)(C)c2ccccc21 | 4.52 µM | 14.9 µM | 4.98 µM | 12.1 µM | 4.31 µM | 9.09 µM | 1.62 µM | 6.44 µM | 11.8 µM | 13.8 µM | 1.69 µM | 3.28 µM | 1.65 µM | 3.33 µM | 0.925 | 2.6 µM | 0.258 µM | 2.13 µM | 2.27 µM | 2.69 µM |
| CCOC(=O)c1[nH]c(COC(C)=O)c2c1CCCCCCCCCC2 | > 100 µM | > 100 µM | > 100 µM | > 100 µM | > 100 µM | > 100 µM | > 100 µM | > 100 µM | > 100 µM | > 100 µM | – | – | – | – | – | – | – | – | – | – |
| NC(N)=NS(=O)(=O)c1ccc(Nc2c3ccccc3nc3c(C(=O)Nc4ccc(S(N)(=O)=O)cc4)cccc23)cc1 | > 100 µM | > 100 µM | > 100 µM | > 100 µM | – | > 100 µM | > 100 µM | > 100 µM | > 100 µM | > 100 µM | – | – | – | – | – | – | – | – | – | – |
| O=Cc1c(O)c(C(=O)Nc2ccc3[nH]c(=O)[nH]c3c2)cc2ccccc12 | > 100 µM | > 100 µM | > 100 µM | > 100 µM | – | > 100 µM | > 100 µM | > 100 µM | > 100 µM | > 100 µM | – | – | – | – | – | – | – | – | – | – |
| CC1(C)C2C=CC1C(=O)CC2 (centres undefined) | > 100 µM | > 100 µM | – | > 100 µM | – | > 100 µM | > 100 µM | > 100 µM | > 100 µM | > 100 µM | – | – | – | – | – | – | – | – | – | – |
| CN(Cc1cc(C(C)(C)C)cc(Br)c1O)Cc1cc(C(C)(C)C)cc(Br)c1O | 5.85 µM | – | 12.8 µM | 11.2 µM | 12.2 µM | 15.9 µM | 7.71 µM | 19.9 µM | 12.1 µM | 17.8 µM | – | – | – | – | – | – | – | – | – | – |
| Oc1ccc2oc3ncc(Br)c(-c4ccccc4)c3c2c1 | > 100 µM | – | – | > 100 µM | > 100 µM | > 100 µM | > 100 µM | > 100 µM | > 100 µM | – | > 100 µM | – | – | > 100 µM | 30.4 | > 100 µM | > 100 µM | > 100 µM | > 100 µM | – |
| CC(C)OP(=O)(NC(=S)c1ccccc1)OC(C)C | > 100 µM | > 100 µM | > 100 µM | > 100 µM | – | > 100 µM | – | > 100 µM | > 100 µM | > 100 µM | – | – | – | – | – | – | – | – | – | – |
| O=c1cccccc1[O-].O=c1cccccc1[O-].O=c1cccccc1[O-].[La+3] | 47.9 µM | > 100 µM | 52 µM | – | – | > 100 µM | 30.9 µM | > 100 µM | > 100 µM | > 100 µM | – | – | – | – | – | – | – | – | – | – |
| CC(=O)OCC1OC(n2c(-c3ccc(C)cc3)cc(-c3ccccc3)c(C#N)c2=O)C(OC(C)=O)C(OC(C)=O)C1OC(C)=O (centres undefined) | > 100 µM | > 100 µM | > 100 µM | > 100 µM | – | > 100 µM | > 100 µM | > 100 µM | > 100 µM | > 100 µM | – | – | – | – | – | – | – | – | – | – |
| CN(C)CCNC(=O)c1ccc(NC(=O)c2nc([N+](=O)[O-])cn2C)cc1 | > 100 µM | – | > 100 µM | > 100 µM | > 100 µM | > 100 µM | > 100 µM | > 100 µM | > 100 µM | > 100 µM | – | – | – | – | – | – | – | – | – | – |
| S=P(N1CC1)(N1CC1)N1CC1 | – | – | – | 60.6 µM and 536 µM and 476 µM | > 51.4 µM and 441 µM | 66.7 µM and 500 µM and 617 µM | – | 53.4 µM and 334 µM and 54.9 µM | – | – | 29 µM and 272 µM | 22.5 µM and 208 µM | – | 8.67 µM and 24.8 µM | – | – | 0.942 µM and 1.95 µM | 1.27 µM | 26.2 µM | – |
| COC(C)(C)C/C=C/C(C)=C/C=C/C(C)=C\C=C\C(C)=C\C=C\C=C(C)\C=C\C=C(C)\C=C\C=C(C)\C=C\CC(C)(C)OC | > 150 µg/mL | > 150 µg/mL | > 150 µg/mL | > 150 µg/mL | – | > 150 µg/mL | > 150 µg/mL | > 150 µg/mL | > 150 µg/mL | > 150 µg/mL | > 150 µg/mL | > 150 µg/mL | > 150 µg/mL | > 150 µg/mL | – | > 150 µg/mL | > 150 µg/mL | > 150 µg/mL | > 150 µg/mL | > 150 µg/mL |
| O=C1c2ccccc2-c2c1c1ccccc1c(=O)n2CCCn1ccnc1 | – | – | 2.29 µM | > 100 µM | – | 6.27 µM | 2.18 µM | 0.763 µM | > 100 µM | > 100 µM | – | – | 0.791 µM | 3.64 µM | – | 1.22 µM | 0.2 µM | 0.274 µM | 1.9 µM | 2.29 µM |
| O=c1c(-c2ccccc2)coc2cc(OC/C(=N/O)c3ccccc3)ccc12 | 9.03 µM | 27.2 µM | 31.4 µM | 28.7 µM | – | 53.2 µM | 95.9 µM | > 100 µM | 39.6 µM | 47.2 µM | 3.03 µM | 10.1 µM | 15.2 µM | 13.5 µM | – | 14.7 µM | 21.3 µM | 12.4 µM | 16.2 µM | 14.9 µM |
| NC(N)=NS(=O)(=O)c1ccc(NCCc2c3ccccc3nc3ccccc23)cc1 | > 100 µM | > 100 µM | – | > 100 µM | > 100 µM | > 100 µM | 82.5 µM | > 100 µM | > 100 µM | 53.8 µM | – | – | – | – | – | – | – | – | – | – |
| COc1cc2c(cc1OC)/C(=C\c1ccccc1N)C(=O)OC2 | 34.3 µM | 47.2 µM | 32.2 µM | 75.4 µM | – | 30.4 µM | 17.6 µM | 8.24 µM | 27.2 µM | 29 µM | – | – | – | – | – | – | – | – | – | – |
| CN(C)c1ccc(/C=c2\sc3nc4ccccc4n3c2=O)cc1 | > 100 µM | > 100 µM | > 100 µM | > 100 µM | – | > 100 µM | > 100 µM | – | > 100 µM | > 100 µM | – | – | – | – | – | – | – | – | – | – |
